From patent US20260365642A1, “ANTIPARASITIC COMPOUNDS” (Animol Discovery, Inc., priority 2023, published 2026)

system: Dirofilaria immitis L1 larvae; assay: Screening against microfilaria (L1 larvae) of Dirofilaria immitis, survival/motility; format: in vivo; settings: 72 h, read-out: Ranked D. immitis L1 MED Activity
Method: Example 44. Screening of Compounds Against Microfilaria of Dirofilaria immitis
To evaluate the efficacy of compounds of the disclosure against Dirofilaria immitis, L1 stage larvae were exposed to various concentrations of the compounds to determine survival or paralysis of the larvae. Results are reported as the minimum effective dose (MED), defined as the concentration required to eliminate motility.
To perform the assay, microfilaria of Dirofilaria immitis were added to the wells of a microtiter plate containing buffer and the test compounds in DMSO. Microfilaria exposed to DMSO alone served as controls. An assessment was conducted at 72 hours to determine survival of the microfilaria.

Compound | minimal effective concentration [µM]
CN(CC1CN(S(C)(=O)=O)CCCO1)c1cc(N2CCOC3(CCCCC3)C2)nc(C(F)(F)F)n1 (stereo not drawn) [Compound 31, N-methyl-N-((4-(methylsulfonyl)-1,4-oxazepan-2-yl)methyl)-6-(1-oxa-4-azaspiro[5.5]undecan-4-yl)-2-(trifluoromethyl)pyrimidin-4-amine] | < 30000
CN(CCC1CN(S(C)(=O)=O)CCO1)c1cc(N2CCCC3(CCCCC3)C2)nc(C(F)(F)F)n1 (stereo not drawn) [Compound 44, N-methyl-N-(2-(4-(methylsulfonyl)morpholin-2-yl)ethyl)-6-(2-azaspiro[5.5]undecan-2-yl)-2-(trifluoromethyl)pyrimidin-4-amine] | > 100000
CS(=O)(=O)N1CCOC(CN(Cc2ccccc2)c2cc(N3CCCC4(CCCCC4)C3)nc(C(F)(F)F)n2)C1 (stereo not drawn) [Compound 37, N-benzyl-N-((4-(methylsulfonyl)morpholin-2-yl)methyl)-6-(2-azaspiro[5.5]undecan-2-yl)-2-(trifluoromethyl)pyrimidin-4-amine] | > 100000
